Usually Ki stands for a measure of affinity in units of concentration, obtained from inhibition or displacement. Low readings indicate a stronger hold on the target, high ones a looser hold on the target.

In this test the target is Glutamate receptor 3 (Rattus norvegicus, UniProt P19492).

A value given as a limit tells only on which side of the number the result lay.

Chain of Glutamate receptor 3 (P19492 whole entry): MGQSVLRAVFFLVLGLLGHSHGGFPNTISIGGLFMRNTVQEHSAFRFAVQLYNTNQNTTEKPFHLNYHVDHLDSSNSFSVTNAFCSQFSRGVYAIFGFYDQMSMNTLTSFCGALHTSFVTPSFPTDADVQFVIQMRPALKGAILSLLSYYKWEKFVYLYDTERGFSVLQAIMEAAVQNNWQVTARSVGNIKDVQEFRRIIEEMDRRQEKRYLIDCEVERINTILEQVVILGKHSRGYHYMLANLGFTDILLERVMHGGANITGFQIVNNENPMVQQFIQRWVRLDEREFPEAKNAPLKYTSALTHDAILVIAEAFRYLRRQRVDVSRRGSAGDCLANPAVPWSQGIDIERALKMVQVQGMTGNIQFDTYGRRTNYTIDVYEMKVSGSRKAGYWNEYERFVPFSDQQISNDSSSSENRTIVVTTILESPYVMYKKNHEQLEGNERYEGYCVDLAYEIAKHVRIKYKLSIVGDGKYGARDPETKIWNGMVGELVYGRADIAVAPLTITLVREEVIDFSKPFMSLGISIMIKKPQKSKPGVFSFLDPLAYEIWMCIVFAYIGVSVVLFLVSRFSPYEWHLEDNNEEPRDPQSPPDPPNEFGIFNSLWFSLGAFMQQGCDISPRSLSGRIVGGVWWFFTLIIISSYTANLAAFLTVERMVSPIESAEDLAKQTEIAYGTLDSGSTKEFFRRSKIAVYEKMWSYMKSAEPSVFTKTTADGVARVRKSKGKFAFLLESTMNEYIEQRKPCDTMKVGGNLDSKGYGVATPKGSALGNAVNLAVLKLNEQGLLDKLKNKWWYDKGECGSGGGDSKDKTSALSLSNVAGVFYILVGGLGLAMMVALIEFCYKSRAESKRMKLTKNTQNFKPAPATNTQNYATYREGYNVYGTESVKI

For `N#Cc1cccc(/C=C/c2nc3ccc(F)cc3c(=O)n2-c2ccccc2Cl)n1`, the inhibition constant (Ki) is 3 nM. As for `CCN(CC)Cc1cccc(/C=C/c2nc3ccc(F)cc3c(=O)n2-c2ccccc2Cl)n1` [(R)-3-(2-Chloro-phenyl)-2-[(E)-2-(6-diethylaminomethyl-pyridin-2-yl)-vinyl]-6-fluoro-3H-quinazolin-4-one], the affinity corresponds to a Ki of 25 nM.

`Cc1ncccc1-n1c(/C=C/C2CSC(C)N2)nc2ccccc2c1=O` (stereo not given) [CP-471236] showed a Ki of 57 nM. The result for `Cc1ncccc1-n1c(/C=C/C2CS[C@H](C)N2)nc2ccccc2c1=O` (stereo not given in full) [CP-471237] reads over 10000 nM. The result for `CC1=NN=C(c2ccc(N)cc2)c2cc3c(cc2C1)OCO3` [GYKI-52466] reads over 10000 nM.

These data come from BindingDB's records for doi:10.1124/mol.58.6.1310 (Pfizer, 2000).
